Laboratory results taken from EP0549291A1, “Thymidylate synthase inhibitors” (TAKEDA CHEMICAL INDUSTRIES, LTD., priority 1991, dated 1993).

Key:
[1] = target: T1, thymidylate synthase (TS) (Mus musculus, UniProt P07607); test: Assay of TS inhibitory activity; assay type: biochemical; conditions: crude TS fraction from Meth A cells; [H³]dUMP, 37°C, 1 hour; read-out: TS inhibitory activity IC₅₀
T1 construct: A crude fraction of TS was prepared from Meth A fibrosarcoma (Meth A) cells subcultured in vitro; endogenous in cells; host or cells: Meth A fibrosarcoma cells (100,000 x g supernatant of ultrasonicated cells)
T1 sequence (P07607 whole entry): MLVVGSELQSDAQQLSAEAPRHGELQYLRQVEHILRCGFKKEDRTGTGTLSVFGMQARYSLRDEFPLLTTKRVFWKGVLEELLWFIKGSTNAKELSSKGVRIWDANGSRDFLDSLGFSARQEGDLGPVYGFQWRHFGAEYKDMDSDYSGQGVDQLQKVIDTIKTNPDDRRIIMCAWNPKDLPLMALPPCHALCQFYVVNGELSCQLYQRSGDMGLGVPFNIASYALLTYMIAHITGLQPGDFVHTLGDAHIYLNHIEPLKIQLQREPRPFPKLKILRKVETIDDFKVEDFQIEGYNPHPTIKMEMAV
Protocol: Assay of TS inhibitory activity
A crude fraction of TS was prepared from Meth A fibrosarcoma (Meth A) cells subcultured in vitro. For cell culture, Eagle's minimum essential medium (MEM, Nissui Pharmaceutical) containing 10% fetal bovine serum was used. Cells in the logarithmic growth phase were harvested, washed twice with phosphate buffered saline, suspended in 0.2 M sucrose and 0.01 M Tris-HCl buffer (pH 7.5), ultrasonicated, and centrifuged at 100,000 x g to obtain a supernatant. The protein concentration was determined using a protein dye reagent (Bio-Rad) with bovine γ-globulin as standard protein. Samples with a protein concentration of 100 mg/ml were prepared.
The enzymatic reaction was conducted as follows, using the method described by D. Roberts in Biochemistry 5, 3546 (1966), partially modified. The reaction mixture consisted of 0.058% formaldehyde, 6.78 mM sodium fluoride, 0.2 mM 2-mercaptoethanol, 6.24 mg/ml bovine serum albumin, 80 µM […] (dUMP), 80 µM tetrahydrofolic acid, 2 mg/ml crude TS fraction, and 0.173 M Tris-HCl buffer (pH 7.5). To this mixture was added a varying concentration of each Example compound. To 50 µl of each final mixture was added 540 KBq [H³]dUMP and the resultant mixture was incubated in a 96-well plate at 37°C for 1 hour. After completion of the incubation, 26.65% trichloroacetic acid and 3.33 mg/ml dUMP were added to stop the reaction and 220 µl of 11.4 mg/ml activated charcoal was added. The whole volume was centrifuged and the radioactivity in 100 µl of the supernatant was determined by the liquid scintillation method. Thus, the concentration required to cause 50% inhibition of TS activity (IC₅₀ value) was obtained.

[2] = tested on: Meth A fibrosarcoma (Meth A) cells; test: Assay of antiproliferative activity against Meth A fibrosarcoma (Meth A) cells; assay type: cell-based; conditions: Mus musculus, 72 hours culture at 37°C and 5% CO₂, cell count with Coulter counter, mean of 3 wells, read-out: Meth A cell growth inhibitory activity IC₅₀
Protocol: Assay of antiproliferative activity against Meth A fibrosarcoma (Meth A) cells
Meth A cells (2 x 10⁴ cells/ml) prepared in the routine manner were seeded, 2.0 ml per well, in a 12-well plate and subjected to stationary culture at 37°C and 5% CO₂. Each Example compound dissolved at an appropriate concentration was serially diluted 1:2 to 1:10 with MEM (Nissui Pharmaceutical) and added in the medium and again the cells were subjected to stationary culture for 72 hours at 37°C and 5% CO₂. Then, the total cell count at each concentration was determined with a Coulter counter (Coulter Electronics, FL) and the mean value of 3 wells was expressed as cell count per milliliter. The concentration of each compound required to reduce the cell count of the untreated control group to 50% was regarded as the IC₅₀ value of the compound.

IC50 [1]	Compound	IC50 [2]
39 nM	CC(c1ccc(C(=O)N[C@@H](CCC(=O)O)C(=O)O)cc1)c1c[nH]c2nc(N)nc(O)c12 (stereo partly drawn) [Example 10, N-[4-[1-(2-amino-4-hydroxy-7H-pyrrolo[2,3-d]pyrimidin-5-yl)ethyl]benzoyl]-L-glutamic acid]	66 nM
37 nM	C=CC(c1ccc(C(=O)N[C@@H](CCC(=O)O)C(=O)O)cc1)c1c[nH]c2nc(N)nc(O)c12 (stereo partly drawn) [Example 14, N-[4-[1-(2-amino-4-hydroxy-7H-pyrrolo[2,3-d]pyrimidin-5-yl)-2-propenyl]benzoyl]-L-glutamic acid]	91 nM
490 nM	Nc1nc(O)c2c(Cc3ccc(C(=O)N[C@@H](CCC(=O)O)C(=O)O)cc3F)c[nH]c2n1 [Example 8, N-[4-(2-amino-4-hydroxy-7H-pyrrolo[2,3-d]pyrimidin-5-yl)methyl-3-fluorobenzoyl]-L-glutamic acid]	110 nM
83 nM	Nc1nc2[nH]cc(Cc3ccc(C(=O)N[C@@H](CCC(=O)O)C(=O)O)s3)c2c(=O)[nH]1 [Example 6, N-[5-(2-amino-4-hydroxy-7H-pyrrolo[2,3-d]pyrimidin-5-yl)methyl-2-thenoyl]-L-glutamic acid]	63 nM
590 nM	Nc1nc(O)c2c(C(C[N+](=O)[O-])c3ccc(C(=O)N[C@@H](CCC(=O)O)C(=O)O)cc3)c[nH]c2n1 (stereo partly drawn) [Example 16, N-[4-[1-(2-amino-4-hydroxy-7H-pyrrolo[2,3-d]pyrimidin-5-yl)-2-nitroethyl]benzoyl]-L-glutamic acid]	93 nM

Second part, the compound before the results:

Compound	IC50 [1]	IC50 [2]
Cn1cc(Cc2ccc(C(=O)N[C@@H](CCC(=O)O)C(=O)O)cc2)c2c(O)nc(N)nc21 [Example 2, N-[4-(2-amino-4-hydroxy-7-methylpyrrolo-[2,3-d]pyrimidin-5-yl)methylbenzoyl]-L-glutamic acid]	860 nM	
NCC(c1ccc(C(=O)N[C@@H](CCC(=O)O)C(=O)O)cc1)c1c[nH]c2nc(N)nc(O)c12 (stereo partly drawn) [Example 18, N-[4-[1-(2-amino-4-hydroxy-7H-pyrrolo[2,3-d]pyrimidin-5-yl)-2-aminoethyl]benzoyl]-L-glutamic acid]		810 nM
Nc1nc(O)c2c(Cc3ccc(C(=O)N[C@@H](CCC(=O)O)C(=O)O)cc3)c[nH]c2n1 [Example 4, N-[4-(2-amino-4-hydroxy-7H-pyrrolo[2,3-d]pyrimidin-5-yl)methylbenzoyl]-L-glutamic acid]		76 nM
CCC(c1ccc(C(=O)N[C@@H](CCC(=O)O)C(=O)O)cc1)c1c[nH]c2nc(N)nc(O)c12 (stereo partly drawn) [Example 12, N-[4-[1-(2-amino-4-hydroxy-7H-pyrrolo[2,3-d]pyrimidin-5-yl)propyl]benzoyl]-L-glutamic acid]		39 nM
